Laboratory results: ChEMBL document CHEMBL5625205, “3-Methoxy-2-phenylimidazo[1,2-b]pyridazines highly active against Mycobacterium tuberculosis and Mycobacterium marinum” (Eur J Med Chem, 2023)
Values after ≈ are worked out from the molar mass of the structure shown. Active and inactive are the calls of the source. The rule behind the calls is not given here.

Columns and labels:
[1] = Metabolic stability in mouse liver microsomes assessed as intrinsic clearance incubated for 60 mins in presence of NADPH; type: ADME, Microsome; conditions: read-out: CLH
[2] = Octanol-water distribution coefficient, logD of the compound at pH 7.4 by HPLC analysis; type: physicochemical
[3] = system: Mycobacterium marinum; experiment: Antimycobacterial activity against Mycobacterium marinum assessed as inhibition of bacterial growth measured for 5 days by luminometer; type: functional; conditions: 120 h, time 5 day
[4] = system: Mycobacterium tuberculosis; experiment: Antimycobacterial activity against Mycobacterium tuberculosis H37Ra assessed as inhibition of bacterial growth measured for 5 days by luminometer; type: functional; conditions: 120 h, time 5 day
[5] = Kinetic solubility of compound in DMSO at pH 6.5 incubated for 30 mins by laser nephelometry; type: physicochemical; conditions: read-out: Kinetic_solubility
[6] = Kinetic solubility of compound in DMSO at pH 2 incubated for 30 mins by laser nephelometry; type: physicochemical; conditions: read-out: Kinetic_solubility
[7] = Metabolic stability in mouse liver microsomes assessed as half life incubated for 60 mins in presence of NADPH; type: ADME, Microsome
[8] = system: Mycobacterium tuberculosis; experiment: Antimycobacterial activity against Mycobacterium tuberculosis H37Ra infected in mouse assessed as reduction in relative light unit in lung at 30 to 300 mg/kg,po administrated once daily for 5 days; type: functional, organism-based; conditions: dose 30-300 mg/kg, time 5.0 day
[9] = system: Mycobacterium tuberculosis; experiment: Antimycobacterial activity against Mycobacterium tuberculosis H37Ra infected in mouse assessed as reduction in relative light unit in lung at 10 mg/kg,po administrated once daily for 5 days; type: functional, organism-based; conditions: time 5.0 day

Compound | MIC90 [3] [µM] | MIC90 [4] [µM] | also measured
COc1cccc(CSc2ccc3nc(-c4ccc(F)cc4)c(OC)n3n2)c1 | 0.63 (≈ 0.249 µg/mL) | 0.63 (≈ 0.249 µg/mL) | microsomal CLint [1]: > 866 µL/min/mg; logD [2]: 4.9; solubility kinetic at 0.5 h [5]: < 1.6 µg/mL; solubility kinetic at 0.5 h [6]: 1.6 µg/mL (≈ 4.05 µM); half-life [7]: < 2 min; Activity [8]: inactive
CCOc1c(-c2ccccc2)nc2ccc(SCc3ccccc3)nn12 | 69.2 (≈ 25 µg/mL) | 69.2 (≈ 25 µg/mL) | –
COc1cccc(CSc2ccc3nc(-c4ccc(F)cc4F)cn3n2)c1 | 261 (≈ 100 µg/mL) | 261 (≈ 100 µg/mL) | –
c1ccc(CSc2ccc3nc(-c4ccccc4)cn3n2)cc1 | > 315 | > 315 | –
CN(Cc1ccccc1)c1ccc2nc(-c3ccc(C(F)(F)F)cc3)c(O)n2n1 | 251 (≈ 100 µg/mL) | > 251 | –
COc1ccc(-c2nc3ccc(SCc4ccccc4)nn3c2OC)cc1 | – | > 260 | –
COc1c(Cc2ccccc2)nc2ccc(SCc3cccc(C)c3)nn12 | 26.6 (≈ 9.99 µg/mL) | 87.9 (≈ 33 µg/mL) | –
COc1c(-c2ccccc2)nc2ccc(SC)nn12 | 36.9 (≈ 10 µg/mL) | 18.4 (≈ 4.99 µg/mL) | –
COc1cccc(CNc2ccc3nc(-c4cccc(C(F)(F)F)c4)c(OC)n3n2)c1 | 9.34 (≈ 4 µg/mL) | 23.3 (≈ 9.98 µg/mL) | –
CN(Cc1ccccc1)c1ccc2nc(-c3ccc(F)cc3)c(O)n2n1 | 144 (≈ 50.2 µg/mL) | 144 (≈ 50.2 µg/mL) | –
COc1cccc(CNc2ccc3nc(-c4ccc(C)cc4)c(OC)n3n2)c1 | 13.4 (≈ 5.02 µg/mL) | 13.4 (≈ 5.02 µg/mL) | –
COc1cccc(COc2ccc3nc(-c4cccc(C(F)(F)F)c4)c(OC)n3n2)c1 | – | > 230 | –
COc1c(-c2ccc(Cl)cc2)nc2ccc(N(C)Cc3ccccc3)nn12 | 6.6 (≈ 2.5 µg/mL) | 6.6 (≈ 2.5 µg/mL) | –
COc1c(-c2ccc(F)cc2F)nc2ccc(N(C)Cc3ccccc3)nn12 | 0.64 (≈ 0.243 µg/mL) | 0.64 (≈ 0.243 µg/mL) | microsomal CLint [1]: 215 µL/min/mg; logD [2]: 4.6; solubility kinetic at 0.5 h [5]: 1.6 µg/mL (≈ 4.21 µM); solubility kinetic at 0.5 h [6]: 25 µg/mL (≈ 65.7 µM); half-life [7]: 8 min; Activity [8]: inactive
COCCOc1c(-c2ccccc2)nc2ccc(SCc3cccc(OC)c3)nn12 | 119 (≈ 50.2 µg/mL) | 29.7 (≈ 12.5 µg/mL) | –
COc1c(-c2ccccc2)nc2ccc(SCc3nc4ccccc4n3C)nn12 | 250 (≈ 100 µg/mL) | 24.9 (≈ 10 µg/mL) | –
COc1ccc(CSc2ccc3nc(-c4ccc(Cl)c(Cl)c4)c(OC)n3n2)cc1 | > 220 | > 220 | –
CO[C@H]1/C=C/O[C@@]2(C)Oc3c(C)c(O)c4c(O)c(c(/C=N/N5CCN(C)CC5)c(O)c4c3C2=O)NC(=O)/C(C)=C\C=C\[C@H](C)[C@H](O)[C@@H](C)[C@@H](O)[C@@H](C)[C@H](OC(C)=O)[C@@H]1C [RIFAMPIN] | 0.24 (≈ 0.198 µg/mL) | 0.073 (≈ 0.0601 µg/mL) | Activity [9]: Active
COc1cccc(CS(=O)(=O)c2ccc3nc(-c4ccc(F)cc4)c(OC)n3n2)c1 | 234 (≈ 100 µg/mL) | 234 (≈ 100 µg/mL) | –

Compound | MIC90 [3] [µM] | MIC90 [4] [µM] | also measured
CN(Cc1ccccc1)c1ccc2nc(-c3ccc(Br)cc3)c(O)n2n1 | > 244 | 244 (≈ 99.9 µg/mL) | –
COc1c(-c2ccccc2)nc2ccc(N(C)Cc3ccccc3)nn12 | 1.45 (≈ 0.499 µg/mL) | 2.9 (≈ 0.999 µg/mL) | –
COc1c(-c2ccccc2)nc2ccc(Sc3ccccc3)nn12 | – | 150 (≈ 50 µg/mL) | –
COc1c(-c2ccc(F)cc2F)nc2ccc(SCc3ccsc3)nn12 | 2.57 (≈ 1 µg/mL) | 10.3 (≈ 4.01 µg/mL) | –
CN(C)Cc1c(-c2ccccc2)nc2ccc(SCc3ccccc3)nn12 | 13.4 (≈ 5.02 µg/mL) | 6.68 (≈ 2.5 µg/mL) | –
COc1cccc(CSc2ccc3nc(-c4ccc(Cl)c(Cl)c4)c(OC)n3n2)c1 | > 220 | > 220 | –
COc1c(-c2ccccc2F)nc2ccc(N(C)Cc3ccccc3)nn12 | 0.69 (≈ 0.25 µg/mL) | 0.69 (≈ 0.25 µg/mL) | microsomal CLint [1]: 405 µL/min/mg; logD [2]: 4.5; solubility kinetic at 0.5 h [5]: < 1.6 µg/mL; solubility kinetic at 0.5 h [6]: 25 µg/mL (≈ 69 µM); half-life [7]: 4 min; Activity [8]: inactive
COc1c(-c2ccc(Br)cc2)nc2ccc(N(C)Cc3ccccc3)nn12 | 11.8 (≈ 5 µg/mL) | 5.91 (≈ 2.5 µg/mL) | –
COc1cccc(CNc2ccc3nc(-c4ccccc4F)c(OC)n3n2)c1 | 6.61 (≈ 2.5 µg/mL) | 6.61 (≈ 2.5 µg/mL) | –
COc1cccc(CSc2ccc3nc(-c4ccc(F)cc4F)c(CN(C)C)n3n2)c1 | 227 (≈ 100 µg/mL) | 227 (≈ 100 µg/mL) | –
COc1cccc(CNc2ccc3nc(-c4cccc(F)c4)c(OC)n3n2)c1 | 26.4 (≈ 9.99 µg/mL) | 52.9 (≈ 20 µg/mL) | –
COc1cccc(CSc2ccc3nc(-c4ccc(Cl)cc4)c(OC)n3n2)c1 | 3.03 (≈ 1.25 µg/mL) | 9.71 (≈ 4 µg/mL) | –
COc1c(-c2ccc(F)cc2)nc2ccc(SCc3ccsc3)nn12 | 5.38 (≈ 2 µg/mL) | 26.9 (≈ 9.99 µg/mL) | –
COc1c(-c2ccccc2)nc2ccc(SCc3ccccn3)nn12 | 2.87 (≈ 1 µg/mL) | 5.74 (≈ 2 µg/mL) | –
COc1cccc(CSc2ccc3nc(-c4ccccc4F)c(OC)n3n2)c1 | 0.15 (≈ 0.0593 µg/mL) | 1.26 (≈ 0.498 µg/mL) | Activity [8]: inactive
CCOc1c(-c2ccccc2F)nc2ccc(SCc3cccc(OC)c3)nn12 | 3.05 (≈ 1.25 µg/mL) | 3.05 (≈ 1.25 µg/mL) | –
CN(Cc1ccccc1)c1ccc2nc(-c3ccc(Cl)cc3)c(O)n2n1 | > 274 | 274 (≈ 100 µg/mL) | –
COc1cccc(COc2ccc3nc(-c4ccc(F)cc4)c(OC)n3n2)c1 | 2.64 (≈ 1 µg/mL) | 2.64 (≈ 1 µg/mL) | –
COc1c(-c2ccccc2)nc2ccc(OCc3ccccc3)nn12 | 1.51 (≈ 0.5 µg/mL) | 3.02 (≈ 1 µg/mL) | –
